Patent publication US6372297B1, “Wood preservative oxathiazines” (Uniroyal Chemical Company, Inc., priority 1993, dated 2002)
Like-named read-outs stand apart in the source and are kept apart here.

How the values were obtained:
Assay type in all cases: cell-based
[1] = tested on: Aspergillus flavus; assay: Wood preservative efficacy against fungi, agar plate colony diameter
Method: (§1) Each plate was inoculated with a spore suspension or with a small piece of agar (1 mm) from the margin of an actively growing colony of the test fungus. The fungi employed are listed below. After incubation at 22° C. and 70% relative humidity during a period long enough to allow significant growth of untreated controls, the diameters of the fungus colonies were measured and scored using the following rating system: 0=free of fungal growth 1=25% of fungal growth compared to untreated 2=50% of fungal growth compared to untreated 3=75% of fungal growth compared to untreated 4=Growth equal to that of untreated The scores measured for wood preservation efficacy of the compounds of this invention are listed in Tables 6a and 6b. In these Tables, the lower numbers are the most preferred species. Aspergillus flavus

[2] = tested on: Chaetomium globosum; assay: as above
Method: as §1, with “Chaetomium globosum” for “Aspergillus flavus”

[3] = tested on: Bacillus cereus mycoides; parameters: scale not given here
[4] = tested on: Pseudomonas aeruginosa; assay: Wood preservative efficacy against bacteria and yeasts, tryptose agar plates; parameters: key: 0 = growth equal to control, 1 = growth inhibited, 2 = no growth; conditions: 100 ppm in tryptose agar
Method: (§2) Compositions were prepared by dissolving the compounds shown in Table 1 in 50% ethanol and further diluting with sterile distilled water. […] After cooling, the medium was inoculated with the bacteria listed below. After sufficient growth of the untreated cultures, the compounds were evaluated using the following rating system: 0=growth equal to control 1=inhibition of growth by the compound 2=no growth under the influence of the compound. In this Table, the higher numbers are the most preferred species. Pseudomonas aeruginosa (gram neg)

[5] = tested on: Aspergillus niger; assay: Wood preservative efficacy against fungi, agar plate colony diameter
Method: as §1, with “niger” for “flavus”

[6] = tested on: Penicillium islandicum; assay: as above; parameters: key: 1 = 25%, 2 = 50%, 3 = 75%, 4 = 100% of untreated fungal growth
Method: (§3) The compounds shown in Table 1 were dissolved in 50% ethanol and then diluted with sterile water to give the required concentrations of 1 and 10 ppm in the test agar plates. Malt extract sugar (3%) was added aseptically and uniform distribution was obtained by shaking. Each plate was inoculated with a spore suspension or with a small piece of agar (1 mm) from the margin of an actively growing colony of the test fungus. The fungi employed are listed below. After incubation at 22° C. and 70% relative humidity during a period long enough to allow significant growth of untreated controls, the diameters of the fungus colonies were measured and scored using the following rating system:
(§4) 1=25% of fungal growth compared to untreated
(§5) 2=50% of fungal growth compared to untreated
(§6) 3=75% of fungal growth compared to untreated
(§7) 4=Growth equal to that of untreated
(§8) In these Tables, the lower numbers are the most preferred species.

[7] = tested on: Streptomyces albus; assay: Wood preservative efficacy against bacteria and yeasts, tryptose agar plates; parameters: key: 0 = growth equal to control, 1 = inhibition, 2 = no growth
Method: as §2, with “Streptomyces albus” for “Pseudomonas aeruginosa”, “pos)” for “neg)”

[8] = tested on: Aureobasidium pullulans; assay: Wood preservative efficacy against fungi, agar plate colony diameter; parameters: key: 1=25%, 2=50%, 3=75%, 4=100% of untreated growth; lower better
Method: as §3, §4, §5, §6, §7, §8

[9] = tested on: Flavobacterium sp.; assay: Wood preservative efficacy against bacteria and yeasts, tryptose agar plates; parameters: key: 0 = growth equal to control, 1 = growth inhibited, 2 = no growth
Method: as §2, with “Flavobacterium sp.” for “Pseudomonas aeruginosa”

[10] = tested on: Coniophora puteana; assay: Wood preservative efficacy against fungi, agar plate colony diameter; parameters: key: 0 = no fungal growth, 1-3 = 25/50/75% of untreated, 4 = equal
Method: as §1, with “Coniophora puteana (syn. C. cerebella)” for “Aspergillus flavus”

[11] = tested on: Mucor sp.; assay: as above
Method: as §1, with “Mucor sp.” for “Aspergillus flavus”

With C[S+]1CCON=C1c1ccc(Cl)cc1 (centres unmarked) [Compound 1] the “Score of fungicidal activity, A. FLAVUS” value ([1]; Test dosage 10 ppm, Table 6A) was 0, the “Score of fungicidal activity, C. GLOBOSUM” value (from here on “Score … C. GLOBOSUM”) ([2]; Test dosage 10 ppm, Table 6A) was 0 and the “Score of bactericidal activity, B. cereus mycoides” value (from here on “Score … B. cereus mycoides”) ([3]; 10 ppm in tryptose agar) was 2. The “Score … B. cereus mycoides” value ([3]; 100 ppm in tryptose agar) was 2, the “Score of bactericidal activity, P. aeruginosa” value (“Score … P. aeruginosa” below) [4] was 0 and the “Score of fungicidal activity, A. NIGER” value ([5]; Test dosage 10 ppm, Table 6A) was 0. The “Score of fungicidal activity, P. ISLANDICUM” value (shortened to “Score … P. ISLANDICUM”) ([6]; Test dosage 10 ppm, Table 6A) was 0, the “Score of bactericidal activity, S. albus” value ([7]; 100 ppm in tryptose agar) was 2 and the “Score of fungicidal activity, A. PULLULANS” value (“Score … A. PULLULANS” for short) ([8]; Test dosage 10 ppm, Table 6A) was 3 (75% of growth compared to untreated control). The “Score of bactericidal activity, Flavobacter” value (shortened to “Score … Flavobacter”) ([9]; 100 ppm in tryptose agar) was 2 and the “Score of fungicidal activity, C. PUTEANA” value ([10]; Test dosage 10 ppm, Table 6A) was 2 (50% of growth compared to untreated control).
With [O-][S+]1CCON=C1c1ccc(Cl)c(Cl)c1 (centres unmarked) [Compound 4] the “Score of fungicidal activity, A. FLAVUS” value ([1]; Test dosage 10 ppm, Table 6A) was 0, the “Score … C. GLOBOSUM” value ([2]; Test dosage 10 ppm, Table 6A) was 0 and the “Score … B. cereus mycoides” value ([3]; 10 ppm in tryptose agar) was 2. For the same compound, the “Score … B. cereus mycoides” value ([3]; 100 ppm in tryptose agar) was 2, the “Score … P. aeruginosa” value [4] was 0 and the “Score of fungicidal activity, A. NIGER” value ([5]; Test dosage 10 ppm, Table 6A) was 0. The “Score … P. ISLANDICUM” value ([6]; Test dosage 10 ppm, Table 6A) was 0, the “Score of bactericidal activity, S. albus” value ([7]; 100 ppm in tryptose agar) was 2 and the “Score … A. PULLULANS” value ([8]; Test dosage 10 ppm, Table 6A) was 2 (50% of growth compared to untreated control). The “Score … Flavobacter” value ([9]; 100 ppm in tryptose agar) was 2 and the “Score of fungicidal activity, C. PUTEANA” value ([10]; Test dosage 10 ppm, Table 6A) was 0.
For [O-][S+]1CCON=C1c1cccs1 (centres unmarked) [Compound 8], the “Score of fungicidal activity, A. FLAVUS” value ([1]; Test dosage 10 ppm, Table 6A) was 1 (25% of growth compared to untreated control), the “Score … C. GLOBOSUM” value ([2]; Test dosage 10 ppm, Table 6A) was 2 (50% of growth compared to untreated control) and the “Score … B. cereus mycoides” value ([3]; 10 ppm in tryptose agar) was 0. For the same compound, the “Score … B. cereus mycoides” value ([3]; 100 ppm in tryptose agar) was 2, the “Score … P. aeruginosa” value [4] was 1 and the “Score of fungicidal activity, A. NIGER” value ([5]; Test dosage 10 ppm, Table 6A) was 1 (25% of growth compared to untreated control). For the same compound, the “Score … P. ISLANDICUM” value ([6]; Test dosage 10 ppm, Table 6A) was 0, the “Score of bactericidal activity, S. albus” value ([7]; 100 ppm in tryptose agar) was 2 and the “Score … A. PULLULANS” value ([8]; Test dosage 10 ppm, Table 6A) was 2 (50% of growth compared to untreated control). The “Score … Flavobacter” value ([9]; 100 ppm in tryptose agar) was 2 and the “Score of fungicidal activity, C. PUTEANA” value ([10]; Test dosage 10 ppm, Table 6A) was 2 (50% of growth compared to untreated control).
For CC(=O)c1ccc(C2=NOCC[S+]2[O-])cc1 (centres unmarked) [Compound 14], the “Score of fungicidal activity, A. FLAVUS” value ([1]; Test dosage 10 ppm, Table 6A) was 2 (50% of growth compared to untreated control), the “Score … C. GLOBOSUM” value ([2]; Test dosage 10 ppm, Table 6A) was 4 and the “Score … B. cereus mycoides” value ([3]; 10 ppm in tryptose agar) was 2. For the same compound, the “Score … B. cereus mycoides” value ([3]; 100 ppm in tryptose agar) was 2, the “Score … P. aeruginosa” value [4] was 1 and the “Score of fungicidal activity, A. NIGER” value ([5]; Test dosage 10 ppm, Table 6A) was 3 (75% of growth compared to untreated control). The “Score … P. ISLANDICUM” value ([6]; Test dosage 10 ppm, Table 6A) was 4, the “Score of bactericidal activity, S. albus” value ([7]; 100 ppm in tryptose agar) was 2 and the “Score of fungicidal activity, MUCOR SP” value ([11]; Test dosage 10 ppm, Table 6A) was 1 (25% of growth compared to untreated control). For the same compound, the “Score … A. PULLULANS” value ([8]; Test dosage 10 ppm, Table 6A) was 4, the “Score … Flavobacter” value ([9]; 100 ppm in tryptose agar) was 2 and the “Score of fungicidal activity, C. PUTEANA” value ([10]; Test dosage 10 ppm, Table 6A) was 3 (75% of growth compared to untreated control).
C[S+]1CCON=C1c1cc(Cl)cc(Cl)c1 (centres unmarked) [Compound 19] was tested, and the “Score of fungicidal activity, A. FLAVUS” value ([1]; 10 ppm, Table 6B) was 0, the “Score … C. GLOBOSUM” value ([2]; 10 ppm, Table 6B) was 0 and the “Score … B. cereus mycoides” value ([3]; 10 ppm in tryptose agar) was 0. The “Score … B. cereus mycoides” value ([3]; 100 ppm in tryptose agar) was 2, the “Score … P. aeruginosa” value [4] was 0 and the “Score of fungicidal activity, A. NIGER” value ([5]; 10 ppm, Table 6B) was 0. For the same compound, the “Score … P. ISLANDICUM” value ([6]; 10 ppm, Table 6B) was 0, the “Score of bactericidal activity, S. albus” value ([7]; 10 ppm in tryptose agar) was 0 and the “Score of bactericidal activity, S. albus” value ([7]; 100 ppm in tryptose agar) was 2. The “Score of fungicidal activity, MUCOR SP” value ([11]; 100 ppm, Table 6B) was 2 (50% of growth compared to untreated control), the “Score … A. PULLULANS” value ([8]; 10 ppm, Table 6B) was 3 (75% of growth compared to untreated control) and the “Score … Flavobacter” value ([9]; 10 ppm in tryptose agar) was 0. The “Score … Flavobacter” value ([9]; 100 ppm in tryptose agar) was 2 and the “Score of fungicidal activity, C. PUTEANA” value ([10]; 10 ppm, Table 6B) was 3 (75% of growth compared to untreated control).
